Results taken from ChEMBL document CHEMBL5260823, “5-Ene-4-thiazolidinones - An efficient tool in medicinal chemistry” (Eur J Med Chem, 2017).

Key:
[1] = Inhibition of beta-lactamase P99 (unknown origin) using cephalosporin nitrocefin as substrate preincubated for 10 mins followed by substrate addition by spectrophotometric analysis; set-up: species or system Bacteria
[2] = Inhibition of COX-2 in LPS stimulated mouse J774.A1 cells using arachidonic acid as substrate preincubated for 60 mins followed by substrate addition and measured after 30 mins by EIA analysis; assay type: cell-based
Lethal factor = target: T1, Lethal factor (Bacillus anthracis, UniProt P15917); test: Inhibition of Bacillus anthracis anthrax lethal factor using MAPKKide as substrate incubated for 30 mins by fluorescence plate reader analysis
T1 sequence (P15917 whole entry): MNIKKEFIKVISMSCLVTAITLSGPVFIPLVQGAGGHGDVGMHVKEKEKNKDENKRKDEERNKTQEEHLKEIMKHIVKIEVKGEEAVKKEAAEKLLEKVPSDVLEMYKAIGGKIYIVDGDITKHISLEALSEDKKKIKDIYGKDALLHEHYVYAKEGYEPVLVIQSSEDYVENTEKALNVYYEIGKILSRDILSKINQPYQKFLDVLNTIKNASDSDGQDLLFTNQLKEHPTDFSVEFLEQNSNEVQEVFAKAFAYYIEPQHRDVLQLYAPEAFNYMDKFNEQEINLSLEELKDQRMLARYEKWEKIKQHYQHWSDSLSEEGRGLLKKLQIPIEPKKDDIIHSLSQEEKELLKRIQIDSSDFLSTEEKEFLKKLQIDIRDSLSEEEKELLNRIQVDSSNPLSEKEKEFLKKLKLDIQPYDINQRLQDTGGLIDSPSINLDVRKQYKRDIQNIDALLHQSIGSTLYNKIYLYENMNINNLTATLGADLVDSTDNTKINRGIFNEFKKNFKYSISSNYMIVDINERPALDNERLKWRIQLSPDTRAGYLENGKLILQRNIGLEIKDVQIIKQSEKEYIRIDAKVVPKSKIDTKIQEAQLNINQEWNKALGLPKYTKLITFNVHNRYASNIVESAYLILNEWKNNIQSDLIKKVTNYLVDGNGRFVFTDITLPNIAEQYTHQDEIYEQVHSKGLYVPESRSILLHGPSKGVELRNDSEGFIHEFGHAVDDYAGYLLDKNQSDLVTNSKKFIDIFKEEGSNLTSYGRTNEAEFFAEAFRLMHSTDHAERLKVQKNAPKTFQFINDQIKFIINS

Plasmodium falciparum = test: Antimalarial activity against chloroquine sensitive Plasmodium falciparum FCR-3 infected in mouse FM3A cells ssessed as reduction in parasite growth; assay type: functional, organism-based; conditions: FCR-3, FM3A
[3] = target: RNA-directed RNA polymerase (Hepacivirus hominis, UniProt O39930); test: Inhibition of Hepatitis C virus NS5B polymerase
Sequence of RNA-directed RNA polymerase (O39930 whole entry): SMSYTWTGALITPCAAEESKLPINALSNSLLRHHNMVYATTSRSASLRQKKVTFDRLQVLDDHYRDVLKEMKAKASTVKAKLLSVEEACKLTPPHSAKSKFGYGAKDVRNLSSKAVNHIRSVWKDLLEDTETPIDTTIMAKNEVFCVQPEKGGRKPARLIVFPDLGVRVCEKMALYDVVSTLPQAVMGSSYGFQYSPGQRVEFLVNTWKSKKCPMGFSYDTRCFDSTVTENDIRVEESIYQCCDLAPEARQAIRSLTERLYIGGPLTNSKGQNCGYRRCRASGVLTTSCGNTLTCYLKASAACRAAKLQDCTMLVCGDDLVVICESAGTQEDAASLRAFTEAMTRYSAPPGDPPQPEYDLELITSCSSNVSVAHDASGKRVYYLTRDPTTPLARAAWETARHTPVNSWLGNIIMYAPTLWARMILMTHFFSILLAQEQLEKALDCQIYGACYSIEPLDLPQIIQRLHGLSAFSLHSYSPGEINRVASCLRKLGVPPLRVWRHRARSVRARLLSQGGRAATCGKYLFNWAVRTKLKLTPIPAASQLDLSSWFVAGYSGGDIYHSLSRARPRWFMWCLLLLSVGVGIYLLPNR

[4] = target: Dual specificity tyrosine-phosphorylation-regulated kinase 1A (Homo sapiens, UniProt Q13627); test: Inhibition of recombinant human GST-tagged DYRK1A expressed in Escherichia coli using Woodtide as substrate in presence of [gamma-33P] ATP incubated for 30 mins by scintillation counter analysis
DU-145 = test: Antiproliferative activity against human DU-145 cells assessed as reduction in cell proliferation incubated for 4 days by crystal violet based assay; assay type: functional; conditions: DU-145, 96 h
NCI-H460 = test: Antiproliferative activity against human NCI-H460 cells assessed as reduction in cell proliferation incubated for 4 days by crystal violet based assay; assay type: functional; conditions: NCI-H460, 96 h
[5] = target: Serine/threonine-protein kinase PLK1 (Homo sapiens, UniProt P53350); test: Inhibition of full-length His-tagged human PLK1 expressed in baculovirus using biotinylated casein as substrate in presence of [gamma-33P]-ATP by scintillation counter analysis
Sequence of Serine/threonine-protein kinase PLK1 (P53350 whole entry): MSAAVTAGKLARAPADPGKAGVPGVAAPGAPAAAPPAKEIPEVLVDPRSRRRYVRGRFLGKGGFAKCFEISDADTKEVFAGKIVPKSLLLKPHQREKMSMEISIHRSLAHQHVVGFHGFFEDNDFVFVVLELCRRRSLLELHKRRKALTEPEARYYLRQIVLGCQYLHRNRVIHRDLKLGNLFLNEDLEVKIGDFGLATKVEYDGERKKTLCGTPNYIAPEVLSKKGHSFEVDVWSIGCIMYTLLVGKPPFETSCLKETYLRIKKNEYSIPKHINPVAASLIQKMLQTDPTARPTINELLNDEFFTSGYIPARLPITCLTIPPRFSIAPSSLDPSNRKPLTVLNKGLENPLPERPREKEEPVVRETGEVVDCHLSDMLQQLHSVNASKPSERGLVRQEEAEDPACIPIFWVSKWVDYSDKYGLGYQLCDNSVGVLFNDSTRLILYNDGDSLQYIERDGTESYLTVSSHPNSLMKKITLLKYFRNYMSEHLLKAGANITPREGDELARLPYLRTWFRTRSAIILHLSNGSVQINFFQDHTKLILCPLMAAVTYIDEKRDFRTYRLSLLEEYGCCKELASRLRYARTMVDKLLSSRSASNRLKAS

Caco-2 = test: Antiproliferative activity against human Caco-2 cells assessed as reduction in cell proliferation incubated for 4 days by crystal violet based assay; assay type: functional; conditions: Caco-2, 96 h
B16-F10 = test: Antiproliferative activity against mouse B16-F10 cells assessed as reduction in cell proliferation incubated for 4 days by crystal violet based assay; assay type: functional; conditions: B16-F10, 96 h
HeLa S3 = test: Antiproliferative activity against human HeLa S3 cells assessed as reduction in cell proliferation incubated for 4 days by crystal violet based assay; assay type: functional; conditions: HeLa S3, 96 h
MCF7 = test: Antiproliferative activity against human MCF7 cells assessed as reduction in cell proliferation incubated for 4 days by crystal violet based assay; assay type: functional; conditions: MCF7, 96 h
[6] = target: T2, Peroxisome proliferator-activated receptor alpha (Homo sapiens, UniProt Q07869); test: Agonist activity against PPAR-alpha (unknown origin)
T2 sequence (Q07869 whole entry): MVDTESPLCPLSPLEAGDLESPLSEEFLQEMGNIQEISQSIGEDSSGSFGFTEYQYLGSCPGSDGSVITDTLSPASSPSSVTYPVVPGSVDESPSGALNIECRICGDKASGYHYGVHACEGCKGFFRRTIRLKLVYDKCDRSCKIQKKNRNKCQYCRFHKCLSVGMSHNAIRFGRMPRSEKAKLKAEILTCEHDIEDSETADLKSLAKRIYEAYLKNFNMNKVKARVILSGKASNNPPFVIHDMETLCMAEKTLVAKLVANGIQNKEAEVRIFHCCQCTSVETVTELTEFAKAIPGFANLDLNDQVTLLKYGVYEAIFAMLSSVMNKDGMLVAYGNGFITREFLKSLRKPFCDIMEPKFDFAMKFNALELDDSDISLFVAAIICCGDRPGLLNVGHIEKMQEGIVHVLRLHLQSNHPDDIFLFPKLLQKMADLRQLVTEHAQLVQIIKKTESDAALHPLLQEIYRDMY

O=C1NC(=S)S/C1=C1\C(=O)Nc2ccccc21
IC50 [1]: 2600 µM

CONC1=NC(=O)/C(=C/c2cc(C(C)(C)C)c(O)c(C(C)(C)C)c2)S1
IC50 [2]: 0.17 µM

O=C(O)CN1C(=O)/C(=C/c2ccco2)SC1=S
IC50 (Lethal factor): 10 µM

C=CCn1c(=O)/c(=C2\Sc3ccccc3N2C)s/c1=C\c1cccc[n+]1C
EC50 (Plasmodium falciparum): 0.012 µM

Cc1ccc(S(=O)(=O)NC2=NC(=O)/C(=C/c3ccc(C)o3)S2)cc1
IC50 [3]: 2 µM

COc1ccc(/C=C2\SC(NCCCN3CCN(CCCNC4=NC(=O)/C(=C/c5ccc(OC)cc5)S4)CC3)=NC2=O)cc1
IC50 [4]: 0.04 µM

CCc1ccc(/C=C2/SC(NC(C(=O)O)c3ccc(F)cc3)=NC2=O)o1 (stereo not given)
IC50 [3]: 3 µM

CCn1c(=O)/c(=C/Nc2cccc(CCN3CCCC3)c2)s/c1=C(\C#N)C(=O)NCC(F)(F)F
IC50 (DU-145): 0.2 µM | IC50 (NCI-H460): 0.2 µM | IC50 [5]: 0.019 µM | IC50 (Caco-2): 0.2 µM | IC50 (B16-F10): 0.2 µM | IC50 (HeLa S3): 0.2 µM | IC50 (MCF7): 0.2 µM

CN(C)c1ccc(/C=C/C=C2\S/C(=N\c3ccccc3)N(Cc3ccc(C(=O)O)cc3)C2=O)cc1
EC50 [6]: 0.044 µM
